From US11567074B2, “Methods for identifying proteins that bind ligands” (University of Pittsburgh—Of the Commonwealth System of …, priority 2016, dated 2023)
Values joined by “and” are separate entries in the source; they are usually repeats but may differ in a detail not shown here. Equal values may be shown once. “Also recorded” adds a separate entry of the source.

Key:
DPP3 [1] = target: T1, DPP3 (Homo sapiens, UniProt Q9NY33); assay: DPP3 activity assay (fluorogenic polypeptide cleavage); assay type: biochemical; design: purchased BPS Bioscience 80203; settings: IC50 upon DPP3 activity, purified recombinant DPP3, substrate Arg2-AMC, fluorescence as a function of dose
T1 sequence (Q9NY33 1-737): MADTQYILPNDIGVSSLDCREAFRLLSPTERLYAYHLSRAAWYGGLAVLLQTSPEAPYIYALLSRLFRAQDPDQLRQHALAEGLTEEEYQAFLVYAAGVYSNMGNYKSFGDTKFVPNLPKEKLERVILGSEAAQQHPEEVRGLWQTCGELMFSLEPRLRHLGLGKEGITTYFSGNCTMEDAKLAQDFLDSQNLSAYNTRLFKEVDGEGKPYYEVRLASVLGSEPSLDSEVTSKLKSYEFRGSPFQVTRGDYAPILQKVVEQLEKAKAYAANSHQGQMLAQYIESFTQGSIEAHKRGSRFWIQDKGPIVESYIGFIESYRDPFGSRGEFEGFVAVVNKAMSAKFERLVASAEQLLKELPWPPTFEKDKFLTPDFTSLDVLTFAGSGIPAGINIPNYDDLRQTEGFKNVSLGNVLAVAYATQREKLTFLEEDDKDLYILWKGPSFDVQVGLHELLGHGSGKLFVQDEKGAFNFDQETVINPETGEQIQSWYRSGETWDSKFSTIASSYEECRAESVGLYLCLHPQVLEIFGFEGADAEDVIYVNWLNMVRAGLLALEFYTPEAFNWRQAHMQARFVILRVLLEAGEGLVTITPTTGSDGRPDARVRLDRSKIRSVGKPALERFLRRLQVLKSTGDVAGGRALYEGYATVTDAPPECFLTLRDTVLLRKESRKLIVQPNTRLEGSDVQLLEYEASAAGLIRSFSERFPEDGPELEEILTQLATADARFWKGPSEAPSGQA
Procedure: (§1) Protein quantification by western blot was employed to confirm the relative abundance of DPP3 remaining in solution following treatment with mdivi-1, heating and centrifugation. Cytoplasmic lysates from a2780cis ovarian cancer cells were treated with 20 μM mdivi-1 of and heated to 44° C., 48° C., 52° C., 56° C., and 60° C., in singlicate; the western blot is shown in FIG. 9D. β-actin was used as a control blot to show an unchanging […] intensity as a function of temperature. […] DPP3 activity was measured using a polypeptide cleavage assay that measures a decrease in fluorescence due to the removal of an n-terminal bound fluorophore. Fluorescence was measured as a function of dose, as shown in FIG. 9E; the control and quench assays for the functional assay are shown in FIG. 9D.
The inhibition of DPP3 peptidase activity by mdivi-1 was evaluated using a commercially available fluorogenic DPP3 Assay Kit (catalog number 80203, BPS Bioscience, San Diego Calif.) that contains purified recombinant DPP3 protein and DPP3 substrate Arg2-AMC. The fluorescence intensity was measured using a microplate reader, Synergy 2 (BioTek instruments).

DPP3 [2] = target: T1, DPP3; assay: Western blot thermal shift (CETSA) in a2780cis lysate, DPP3; assay type: binding; design: endogenous in cells; host or cells: a2780cis cells (Sigma Aldrich), cleared freeze-thaw lysate; settings: 20 μM mdivi-1, a2780cis cytoplasmic lysate, 44-60° C., vs vehicle
Procedure: as §1
(§2) The lysate stock was placed on ice until thawed.
(§3) Lysates of A2780cis cells were prepared identically as DISRUPT experiments outlined above. The soluble protein was separated on Tris-glycine gels (Invitrogen). The separated proteins were blotted onto a polyvinylidene difluoride (PVDF) membrane and non-specific binding was blocked overnight at 4° C. in phosphate-buffered saline containing 0.1% Tween 20 and 10% nonfat dry milk (blocking buffer). Membranes were incubated with primary antibodies, DPP3 (GeneTex), Drpl (BD Biosciences), and β-actin (Sigma-Aldrich), in blocking buffer overnight at 4° C. […]

[3] = target: T2, dipeptidyl peptidase 3 (DPP3) (Homo sapiens, UniProt Q9NY33); assay: DISRUPT label-free differential mass spectrometry, a2780cis lysate; assay type: binding; settings: 20 μM mdivi-1, a2780cis lysate, 56° C. for ten minutes, n=6 per condition
T2 construct: endogenous in cells; host or cells: a2780cis cells (Sigma Aldrich), cleared freeze-thaw lysate
T2 sequence (Q9NY33 1-737): T1 sequence (Q9NY33 1-737)
Procedure: Equal aliquots of a2780cis cells were treated with 20 μM mdivi-1 and DMSO respectively, split into six technical replicates per condition, and heated to 56° C. for ten minutes to stimulate differential agglutination of drug-bound and unbound proteins. […] Data-dependent MS/MS data was analyzed and results in the identification of 35,369 features linked to 5488 unique peptides sequences that were associated with 947 proteins. Features […] having non-zero intensity values in at least four of six samples per condition were selected, and a Student's t-test was applied to compute a p value for each feature, and a volcano plot was created to show the distribution of features as a function of fold change and significance, as shown in the volcano plot in FIG. 7A. Two of the significant features were identified as peptide […] (SEQ ID NO: 2) deriving from dipeptidyl peptidase 3, DPP3, using MS/MS spectra acquired during the initial dMS experiment. The 6 remaining highly significant features were identified as peptides […] (SEQ ID NO: 6), […] (SEQ ID NO: 4), and […] (SEQ ID NO: 1) that are specific to the protein sequence for DPP3, using MS/MS spectra acquired in subsequent analyses.
as §2
Samples were denatured and digested utilizing the FASP method described by Wisniewski et al. (2009) and Manza et al. (2005). […]

β-actin = target: T3, β-actin (Homo sapiens, UniProt P60709); assay: Western blot thermal shift (CETSA) in a2780cis lysate, β-actin control; assay type: binding; settings: 20 μM mdivi-1, a2780cis cytoplasmic lysate, control protein
T3 construct: Lysates of A2780cis cells were prepared identically as DISRUPT experiments outlined above; endogenous in cells; host or cells: a2780cis cells, cleared lysate
Procedure: as §1, §2, §3

DRP1 = target: T4, DRP1 (Homo sapiens, UniProt O00429); assay: Western blot thermal shift (CETSA) in a2780cis lysate, DRP1; assay type: binding; settings: 20 μM mdivi-1, a2780cis cytoplasmic lysate, 44-60° C., vs vehicle
T4 construct: Lysates of A2780cis cells were prepared identically as DISRUPT experiments outlined above; endogenous in cells; host or cells: a2780cis cells, cleared lysate
Procedure: as §1, §2, §3

[4] = tested on: tumor cells including cisplatin resistant ovarian cancers cells; settings: wide range of tumor cells incl. cisplatin resistant ovarian cancer cells; cited from earlier work
[5] = target: T5, Huntingtin-interacting protein K, HYPK (Homo sapiens, UniProt Q9NX55); assay: DISRUPT label-free differential mass spectrometry, K562 lysate, HYPK; assay type: binding; settings: 2 μM staurosporine, 56° C. for ten minutes, n=10 per condition
T5 construct: endogenous in cells; host or cells: K562 cells (ATCC), cleared lysate in kinase buffer
T5 sequence (Q9NX55 1-121): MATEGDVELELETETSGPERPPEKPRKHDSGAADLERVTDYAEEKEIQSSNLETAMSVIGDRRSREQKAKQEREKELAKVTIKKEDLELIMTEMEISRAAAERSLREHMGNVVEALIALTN
Procedure: Samples were heated to 56° C. for ten minutes to stimulate protein agglutination (protein clumping) and agglutinated proteins were removed from solution by centrifugation at 20,000 g.
To measure the relative abundance of proteins in solution, lysates were subjected to tryptic digestion, desalting and quantitative proteomic analysis. Peptide samples were separated by reversed phase C18 nanoflow liquid chromatography (nLC), ionized by electrospray ionization, and analyzed with a hybrid ion trap/high-resolution Fourier transform mass spectrometer. […] To enhance the quantification of the vast number of molecular features present in high-resolution data, the acquisition of full-scan MS spectra were prioritized over the collection of MS/MS spectra that are used for peptide identification, resulting in approximately 10 quantitative measurements per chromatographic peak.
Samples were analyzed in a balanced run order to compensate for drifts in mass spectrometry response that occurs as a function of time. Each sample was analyzed once and the resulting data file was uploaded to a cloud-based data analysis platform, CHORUS (www.chorusproject.org), that was developed to support the efficient analysis of high-resolution mass spectrometry data. Label-free differential mass spectrometry (dMS) was used to quantify hundreds of thousands of features detected by nLC-MS analysis. […]

T4 sequence (O00429 whole entry): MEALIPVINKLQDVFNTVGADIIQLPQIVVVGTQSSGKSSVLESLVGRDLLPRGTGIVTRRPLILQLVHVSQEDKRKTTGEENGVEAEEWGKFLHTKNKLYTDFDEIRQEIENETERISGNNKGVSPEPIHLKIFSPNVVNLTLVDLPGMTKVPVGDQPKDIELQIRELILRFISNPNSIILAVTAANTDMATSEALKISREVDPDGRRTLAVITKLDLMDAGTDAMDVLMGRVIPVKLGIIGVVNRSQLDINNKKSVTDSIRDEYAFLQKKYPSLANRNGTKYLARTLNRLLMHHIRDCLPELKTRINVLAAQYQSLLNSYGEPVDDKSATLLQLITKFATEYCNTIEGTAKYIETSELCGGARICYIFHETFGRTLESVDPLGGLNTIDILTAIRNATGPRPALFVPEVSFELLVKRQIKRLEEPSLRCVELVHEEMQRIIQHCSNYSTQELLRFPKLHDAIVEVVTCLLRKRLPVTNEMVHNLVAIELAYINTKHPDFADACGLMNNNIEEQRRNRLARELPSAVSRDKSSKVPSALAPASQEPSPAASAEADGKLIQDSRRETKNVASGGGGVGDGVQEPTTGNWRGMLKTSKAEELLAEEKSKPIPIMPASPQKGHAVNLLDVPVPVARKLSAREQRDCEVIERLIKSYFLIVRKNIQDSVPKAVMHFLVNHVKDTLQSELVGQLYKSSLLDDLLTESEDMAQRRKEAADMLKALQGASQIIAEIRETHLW

| Compound | IC50 (DPP3 [1]) | thermal shift of DPP3 (protein remaining in solution, western blot) (DPP3 [2]) | DISRUPT ranking / significant features of DPP3 [3] | thermal shift of β-actin (western blot) (β-actin) | thermal shift of DRP1 (western blot) (DRP1) | killing of tumor cells [4] | peptides identified among the 15 highly significant features (p<0.0001), HYPK [5] |
| --- | --- | --- | --- | --- | --- | --- | --- |
| COc1cc(-n2c(S)nc3ccccc3c2=O)c(Cl)cc1Cl [mdivi-1] | ~70 nM and 70 nM | remained in solution at 52 °C and 56 °C at higher levels compared to vehicle treated controls; also recorded: a strong shift was seen for DPP3 | eight DPP3 peptides from 18 features were significant; also recorded: top putative target | no shifts were observed | no evidence of a thermal shift; also recorded: no shifts were observed | robust killing |  |
| CN[C@@H]1C[C@H]2O[C@@](C)([C@@H]1OC)n1c3ccccc3c3c4c(c5c6ccccc6n2c5c31)C(=O)NC4 [staurosporine] |  |  |  |  |  |  | one peptide |
